From ChEMBL document CHEMBL4837202, “Design, synthesis of novel celastrol derivatives and study on their antitumor growth through HIF-1α pathway” (Eur J Med Chem, 2021)
≈ marks a conversion by molar mass, not a printed value. Calls of active or inactive are those of the source. The rule behind the calls is not given here.

Key:
[1] = system: Hep 3B2; assay: Cytotoxicity against human Hep3B cells assessed as reduction in cell viability incubated for 24 hrs under normaxic condition by MTT assay; format: cell-based
[2] = Solubility of the compound in water measured by UV-Visible spectral analysis; format: physicochemical
[3] = system: Hep 3B2; assay: Inhibition of hypoxia-induced HIF1alpha protein expression in human Hep3B cells incubated for 12 hrs in presence of 1% O2 under hypoxic condition by Western blot analysis; format: functional, cell-based; conditions: dose 1-10 µM
[4] = system: Hep 3B2; assay: Antiproliferative activity against human Hep3B cells assessed as reduction in colony formation incubated for 7 days by crystal violet staining based assay; format: functional, cell-based; conditions: dose 1-10 µM, time 7.0 day
[5] = system: Hep 3B2; assay: Inhibition of cell migration in human Hep3B cells at incubated for 24 hrs by scratch wound healing assay; format: functional, cell-based; conditions: dose 1-10 µM
[6] = system: Hep 3B2; assay: Inhibition of cell migration in human Hep3B cells at incubated for 48 hrs by scratch wound healing assay; format: functional, cell-based; conditions: dose 1-10 µM
[7] = system: Hep 3B2; assay: Induction of apoptosis in human Hep3B cells assessed as early apoptotic cells at 1 uM incubated for 24 hrs by PI and annexin V-FITC staining based flow cytometry (reference value: 1.2%); format: functional
[8] = system: Hep 3B2; assay: Induction of apoptosis in human Hep3B cells assessed as late apoptotic cells at 1 uM incubated for 24 hrs by PI and annexin V-FITC staining based flow cytometry (reference value: 1.6%); format: functional
[9] = system: Hep 3B2; assay: Induction of apoptosis in human Hep3B cells assessed as necrotic cells at 1 uM incubated for 24 hrs by PI and annexin V-FITC staining based flow cytometry (reference value: 0.1%); format: functional
[10] = system: Hep 3B2; assay: Induction of apoptosis in human Hep3B cells assessed as viable cells at 1 uM incubated for 24 hrs by PI and annexin V-FITC staining based flow cytometry (reference value: 97.0%); format: functional; conditions: read-out: Activity
[11] = system: Hep 3B2; assay: Induction of apoptosis in human Hep3B cells assessed as early apoptotic cells at 3 uM incubated for 24 hrs by PI and annexin V-FITC staining based flow cytometry (reference value: 1.2%); format: functional
[12] = system: Hep 3B2; assay: Induction of apoptosis in human Hep3B cells assessed as late apoptotic cells at 3 uM incubated for 24 hrs by PI and annexin V-FITC staining based flow cytometry (reference value: 1.6%); format: functional
[13] = system: Hep 3B2; assay: Induction of apoptosis in human Hep3B cells assessed as necrotic cells at 3 uM incubated for 24 hrs by PI and annexin V-FITC staining based flow cytometry (reference value: 0.1%); format: functional
[14] = system: Hep 3B2; assay: Induction of apoptosis in human Hep3B cells assessed as viable cells at 3 uM incubated for 24 hrs by PI and annexin V-FITC staining based flow cytometry (reference value: 97.0%); format: functional; conditions: read-out: Activity
[15] = system: Hep 3B2; assay: Induction of apoptosis in human Hep3B cells assessed as early apoptotic cells at 10 uM incubated for 24 hrs by PI and annexin V-FITC staining based flow cytometry (reference value: 1.2%); format: functional
[16] = system: Hep 3B2; assay: Induction of apoptosis in human Hep3B cells assessed as late apoptotic cells at 10 uM incubated for 24 hrs by PI and annexin V-FITC staining based flow cytometry (reference value: 1.6%); format: functional
[17] = system: Hep 3B2; assay: Induction of apoptosis in human Hep3B cells assessed as necrotic cells at 10 uM incubated for 24 hrs by PI and annexin V-FITC staining based flow cytometry (reference value: 0.1%); format: functional
[18] = system: Hep 3B2; assay: Induction of apoptosis in human Hep3B cells assessed as viable cells at 10 uM incubated for 24 hrs by PI and annexin V-FITC staining based flow cytometry (reference value: 97.0%); format: functional; conditions: read-out: Activity
[19] = system: HCT-116; assay: Antitumour activity against human HCT-116 cells xenografted in nude BALB/c mouse assessed as tumour growth inhibition at 5 mg/kg, ip administered for 20 days relative to control; format: functional; parameters: scale not given: the % may be the effect or the level left; conditions: time 20 day
[20] = system: HCT-116; assay: Antitumour activity against human HCT-116 cells xenografted in nude BALB/c mouse assessed as tumour growth inhibition at 10 mg/kg, ip administered for 20 days relative to control; format: functional; parameters: scale not given: the % may be the effect or the level left; conditions: time 20 day
[21] = Toxicity in BALB/c mouse xenografted […] HCT-116 cells assessed as effect on body weight at 5 mg/kg, ip administered every day measured after 21 days; format: organism-based; conditions: in vivo, 504 h, time 21 day
[22] = Toxicity in BALB/c mouse xenografted […] HCT-116 cells assessed as effect on body weight at 10 mg/kg, ip administered every day measured after 21 days; format: organism-based; conditions: in vivo, 504 h, time 21 day
[23] = system: HCT-116; assay: Antitumour activity against human HCT-116 cells xenografted BALB/c mouse with assessed as morphological changes in tumour tissue at 5 mg/kg, ip administered every day measured after 21 days H and E staining based optical microscopic method; format: functional, organism-based; conditions: time 21.0 day
[24] = system: HCT-116; assay: Antitumour activity against human HCT-116 cells xenografted BALB/c mouse with assessed as morphological changes in tumour tissue at 10 mg/kg, ip administered every day measured after 21 days H and E staining based optical microscopic method; format: functional, organism-based; conditions: time 21.0 day

CC1=C(O)C(=O)C=C2C1=CC=C1[C@@]2(C)CC[C@@]2(C)[C@@H]3C[C@](C)(C(=O)OCC(=O)Nc4cccc5cccnc45)CC[C@]3(C)CC[C@]12C
IC50 [1]: 1690 nM

CC1=C(O)C(=O)C=C2C1=CC=C1[C@@]2(C)CC[C@@]2(C)[C@@H]3C[C@](C)(C(=O)OCC(=O)Nc4ccc5ncccc5c4)CC[C@]3(C)CC[C@]12C
IC50 [1]: 2910 nM

CC1=C(O)C(=O)C=C2C1=CC=C1[C@@]2(C)CC[C@@]2(C)[C@@H]3C[C@](C)(C(=O)OCC(=O)NCc4cn(-c5ccc(C)cc5)nn4)CC[C@]3(C)CC[C@]12C
IC50 [1]: 2720 nM

CC1=C(O)C(=O)C=C2C1=CC=C1[C@@]2(C)CC[C@@]2(C)[C@@H]3C[C@](C)(C(=O)OCC(=O)Nc4ccncc4)CC[C@]3(C)CC[C@]12C
IC50 [1]: 234000 nM

CC1=C(O)C(=O)C=C2C1=CC=C1[C@@]2(C)CC[C@@]2(C)[C@@H]3C[C@](C)(C(=O)OCCOc4ccc5ccc(=O)oc5c4)CC[C@]3(C)CC[C@]12C
IC50 [1]: 2450 nM

CCOP(=O)(OCC)C(NC(=O)COC(=O)[C@]1(C)CC[C@]2(C)CC[C@]3(C)C4=CC=C5C(=CC(=O)C(O)=C5C)[C@]4(C)CC[C@@]3(C)[C@@H]2C1)c1ccc(OC)cc1 (some centres not stated)
IC50 [1]: 1480 nM

CC1=C(O)C(=O)C=C2C1=CC=C1[C@@]2(C)CC[C@@]2(C)[C@@H]3C[C@](C)(C(=O)OCCOc4cccc5ncccc45)CC[C@]3(C)CC[C@]12C
IC50 [1]: 14400 nM

CC1=C(O)C(=O)C=C2C1=CC=C1[C@@]2(C)CC[C@@]2(C)[C@@H]3C[C@](C)(C(=O)OCCOc4cnc5ccccc5c4)CC[C@]3(C)CC[C@]12C
solubility [2]: 28.1 µg/mL (≈ 45.2 µM)
IC50 [1]: 16800 nM
Activity [3]: Dose-Dependent Effect
Activity [4]: Dose-Dependent Effect
inhibition [5]: Dose-Dependent Effect
inhibition [6]: Dose-Dependent Effect
Activity [7]: 1.9%
Activity [8]: 1.4%
Activity [9]: 0.2%
viability at 1 µM [10]: 96.6%
Activity [11]: 1.9%
Activity [12]: 2%
Activity [13]: 0%
viability at 3 µM [14]: 96.1%
Activity [15]: 6.2%
Activity [16]: 5.7%
Activity [17]: 0.2%
viability at 10 µM [18]: 87.9%
Activity [19]: 60.38%
Activity [20]: 74.3%
Activity [21]: Non-Toxic
Activity [22]: Non-Toxic
Activity [23]: Active
Activity [24]: Active

CC1=C(O)C(=O)C=C2C1=CC=C1[C@@]2(C)CC[C@@]2(C)[C@@H]3C[C@](C)(C(=O)OCC(=O)Nc4ccc(F)nc4)CC[C@]3(C)CC[C@]12C
IC50 [1]: 4210 nM

CC1=C(O)C(=O)C=C2C1=CC=C1[C@@]2(C)CC[C@@]2(C)[C@@H]3C[C@](C)(C(=O)O)CC[C@]3(C)CC[C@]12C [CELASTROL]
solubility [2]: 38.2 µg/mL (≈ 84.8 µM)
IC50 [1]: 760 nM

O=c1[nH]cc(F)c(=O)[nH]1 [FLUOROURACIL]
Activity [20]: 59.58%
Activity [22]: Non-Toxic
Activity [24]: Active

COc1ccc(-n2cc(CNC(=O)COC(=O)[C@]3(C)CC[C@]4(C)CC[C@]5(C)C6=CC=C7C(=CC(=O)C(O)=C7C)[C@]6(C)CC[C@@]5(C)[C@@H]4C3)nn2)cc1
IC50 [1]: 9110 nM

CC1=C(O)C(=O)C=C2C1=CC=C1[C@@]2(C)CC[C@@]2(C)[C@@H]3C[C@](C)(C(=O)OCC(=O)NCc4cn(-c5ccc(Cl)c(Cl)c5)nn4)CC[C@]3(C)CC[C@]12C
IC50 [1]: 2450 nM

CC1=C(O)C(=O)C=C2C1=CC=C1[C@@]2(C)CC[C@@]2(C)[C@@H]3C[C@](C)(C(=O)OCCOc4cc(=O)oc5ccccc45)CC[C@]3(C)CC[C@]12C
IC50 [1]: 134000 nM

CC1=C(O)C(=O)C=C2C1=CC=C1[C@@]2(C)CC[C@@]2(C)[C@@H]3C[C@](C)(C(=O)OCCOc4cc(C)oc(=O)c4)CC[C@]3(C)CC[C@]12C
IC50 [1]: 1160 nM

CCOP(=O)(OCC)C(NC(=O)COC(=O)[C@]1(C)CC[C@]2(C)CC[C@]3(C)C4=CC=C5C(=CC(=O)C(O)=C5C)[C@]4(C)CC[C@@]3(C)[C@@H]2C1)c1ccccc1 (some centres not stated)
IC50 [1]: 1170 nM

CC1=C(O)C(=O)C=C2C1=CC=C1[C@@]2(C)CC[C@@]2(C)[C@@H]3C[C@](C)(C(=O)OCC(=O)NCc4cn(-c5ccccc5)nn4)CC[C@]3(C)CC[C@]12C
IC50 [1]: 1160 nM

CC1=C(O)C(=O)C=C2C1=CC=C1[C@@]2(C)CC[C@@]2(C)[C@@H]3C[C@](C)(C(=O)OCCOc4ccc5cccnc5c4)CC[C@]3(C)CC[C@]12C
IC50 [1]: 5270 nM

CCOP(=O)(OCC)C(NC(=O)COC(=O)[C@]1(C)CC[C@]2(C)CC[C@]3(C)C4=CC=C5C(=CC(=O)C(O)=C5C)[C@]4(C)CC[C@@]3(C)[C@@H]2C1)c1ccc(C)cc1 (some centres not stated)
IC50 [1]: 4550 nM

CC1=C(O)C(=O)C=C2C1=CC=C1[C@@]2(C)CC[C@@]2(C)[C@@H]3C[C@](C)(C(=O)OCC(=O)Nc4ccnc5ccccc45)CC[C@]3(C)CC[C@]12C
IC50 [1]: 4000 nM

CCOP(=O)(OCC)C(NC(=O)COC(=O)[C@]1(C)CC[C@]2(C)CC[C@]3(C)C4=CC=C5C(=CC(=O)C(O)=C5C)[C@]4(C)CC[C@@]3(C)[C@@H]2C1)c1ccc(F)cc1 (some centres not stated)
IC50 [1]: 2330 nM

CC1=C(O)C(=O)C=C2C1=CC=C1[C@@]2(C)CC[C@@]2(C)[C@@H]3C[C@](C)(C(=O)OCC(=O)Nc4ccc(F)cn4)CC[C@]3(C)CC[C@]12C
IC50 [1]: 1260 nM

CC1=C(O)C(=O)C=C2C1=CC=C1[C@@]2(C)CC[C@@]2(C)[C@@H]3C[C@](C)(C(=O)OCC(=O)Nc4cc(C)on4)CC[C@]3(C)CC[C@]12C
IC50 [1]: 3070 nM

CC1=C(O)C(=O)C=C2C1=CC=C1[C@@]2(C)CC[C@@]2(C)[C@@H]3C[C@](C)(C(=O)OCC(=O)Nc4cnc5ccccc5c4)CC[C@]3(C)CC[C@]12C
IC50 [1]: 1040 nM

CC1=C(O)C(=O)C=C2C1=CC=C1[C@@]2(C)CC[C@@]2(C)[C@@H]3C[C@](C)(C(=O)OCC(=O)Nc4cccc5ncccc45)CC[C@]3(C)CC[C@]12C
IC50 [1]: 1110 nM

CC1=C(O)C(=O)C=C2C1=CC=C1[C@@]2(C)CC[C@@]2(C)[C@@H]3C[C@](C)(C(=O)OCC(=O)NCc4cn(-c5ccc(Cl)cc5)nn4)CC[C@]3(C)CC[C@]12C
IC50 [1]: 21900 nM
